Reference: patent US9518107B2, “Pharmaceutical compositions containing polypeptides derived from α-1 antitrypsin and methods of use thereof” (YISSUM RESEARCH DEVELOPMENT COMPANY OF THE HEBREW …, priority 2010, dated 2016)

Columns and labels:
arthritic mice = assay: Collagen type II induced arthritis, joint swelling; type: in vivo; conditions: 1 μg/kg thrice a week, from five days after second immunization; FIG. 16
Procedure: Chick collagen type II (2.0 mg) was incubated overnight in 0.01 M acetic acid (0.9 ml) at 4° C. The resulting solution was emulsified with equal volume (1.0 ml) of […] Freund's Adjuvant containing 5.0 mg heat-killed Mycobacterium tuberculosis. Thereafter, the animal was injected intradermally in the tail base with 100 μl of the emulsion and an additional immunization was repeated 21 days later. Five days later, UBE or UBE1 polypeptide were administered (1 μg/kg thrice a week). The animals were evaluated for the difference in joint thickness (mm) between the indicated time intervals and prior to immunization.

Female C57BL/6 mice = assay: Experimental autoimmune encephalitis (EAE), MOG 35-55 induced, neurological score; type: in vivo; conditions: for neurological symptoms (neurological score 0 to 6): i.p. 1 μg/kg, thrice a week, from four days after MOG immunization, FIG. 3
Procedure: (§1) Female C57BL/6 mice were injected subcutaneously into 4 sites on the back, adjacent to each of the forelimbs and hindlimbs (total amount 200 μl) with a myelin oligodendritic glycoprotein (MOG) 35-55 fragment emulsified with complete Freund's adjuvant. Thereafter, each animal was i.p. injected with pertusis toxin (PTX; 200 ng/mouse) in PBS and an additional
PTX injection was repeated 2 days later, which is a standard protocol for initiating experimental autoimmune encephalomyelitis (EAE) in mice. UBE polypeptide (SEQ ID NO:2) was intraperitoneally (i.p.) injected (0.3 μg/kg, thrice a week) five days after MOG immunization (day of onset of symptoms). The animals were evaluated for neurological score from 0 (no effect) to 6 (severe neurological symptoms including paralysis). Results are the mean±SE of neurological score (sum of all scores divided by the number of animals in each experimental group) at each of the indicated time intervals after MOG injection.
as §1, with “additional PTX injection was repeated 2 days later. Four days after MOG immunization, each mouse received i.p. injections (1 μg/kg, thrice a week) of each of the following polypeptides:” for “additional”
The animals were evaluated for neurological score from 0 (no effect) to 6 (severe neurological symptoms including paralysis). Results are the mean±SE of neurological score (sum of all scores divided by the number of animals in each experimental group) at each of the indicated time intervals after immunization.

severe sepsis = conditions: decrease from about 31% without treatment; further trials failed to replicate; cited from earlier work

YSMPPIVRFDHPFLFIIFEEHTQSPLFVGKVVDPTHK (listed as Mus musculus) [UBE1, peptide corresponding to residues 377-413 of Mus musculus alpha-1-antitrypsin (serpin a1c)]
joint swelling (difference in joint thickness) (arthritic mice): reduction in joint swelling
neurological damage in animal models of multiple sclerosis (Female C57BL/6 mice; summary statement, b192 (FIG. 3) does not name UBE1): highly effective in eliminating neurological damage

SMPPIVRFDHPFLFIIFEEHTQSPLFVGKVVDPTH (listed as Mus musculus) [UBE-C, peptide corresponding to residues 378-412 of Mus musculus alpha-1-antitrypsin (serpin a1c)]
neurological symptoms (neurological score 0 to 6) (Female C57BL/6 mice): reduced the neurological symptoms

MPPIVRFDHPFLFIIFEEHTQSPLFVGKVVDPTHK (listed as Mus musculus) [UBE-N, peptide corresponding to residues 379-413 of Mus musculus alpha-1-antitrypsin (serpin a1c)]
neurological symptoms (neurological score 0 to 6) (Female C57BL/6 mice): reduced the neurological symptoms

drotrecogin alfa
mortality in severe sepsis (severe sepsis): about 25%
